For 15 compounds, EC50 results are on record in US20240270821A1, “GIP/GLP1/GCG TRI-RECEPTOR AGONISTS AND USES THEREOF” (priority 2023, published 2024).

The EC50 is the concentration needed to bring the measured effect to its halfway point.

Assay type in all cases: cell-based
The target in experiment [1] is hGcgR (Homo sapiens, UniProt P47871). Nature of the experiment: Functional cAMP activation in the presence of 0.1% casein (no HSA). Conditions: read-out: Relative cAMP EC50, hGcgR.
The target of experiment [2] is T1, hGLP-1R (Homo sapiens, UniProt P43220). The experiment is described as above. Conditions: read-out: Relative cAMP EC50, hGLP-1R.
T1 sequence (P43220 24-463): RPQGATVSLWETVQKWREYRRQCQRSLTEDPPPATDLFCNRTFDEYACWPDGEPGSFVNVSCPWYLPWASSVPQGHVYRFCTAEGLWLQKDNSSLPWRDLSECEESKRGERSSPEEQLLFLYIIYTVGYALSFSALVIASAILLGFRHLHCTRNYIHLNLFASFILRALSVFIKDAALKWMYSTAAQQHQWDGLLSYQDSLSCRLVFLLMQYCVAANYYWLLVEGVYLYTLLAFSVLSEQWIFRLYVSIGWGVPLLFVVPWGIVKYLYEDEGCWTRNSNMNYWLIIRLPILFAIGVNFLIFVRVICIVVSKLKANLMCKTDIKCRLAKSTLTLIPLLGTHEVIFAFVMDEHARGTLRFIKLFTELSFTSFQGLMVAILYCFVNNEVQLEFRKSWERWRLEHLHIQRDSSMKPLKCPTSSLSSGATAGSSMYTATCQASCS
Experiment [3] has as its target T2, hGIPR (Homo sapiens, UniProt P48546).
T2 sequence (P48546 22-466): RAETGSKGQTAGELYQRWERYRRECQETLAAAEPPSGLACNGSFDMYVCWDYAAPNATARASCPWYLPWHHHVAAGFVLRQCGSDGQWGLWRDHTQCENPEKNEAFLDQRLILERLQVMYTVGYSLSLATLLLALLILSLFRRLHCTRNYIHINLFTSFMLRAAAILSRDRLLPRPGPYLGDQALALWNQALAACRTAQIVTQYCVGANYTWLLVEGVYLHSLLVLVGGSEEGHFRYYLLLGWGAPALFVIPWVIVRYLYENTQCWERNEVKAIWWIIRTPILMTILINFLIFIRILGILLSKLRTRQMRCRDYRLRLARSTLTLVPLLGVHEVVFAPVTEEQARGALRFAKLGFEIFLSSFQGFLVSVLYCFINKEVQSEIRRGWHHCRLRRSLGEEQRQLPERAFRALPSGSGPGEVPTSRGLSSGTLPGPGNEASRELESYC
Nature of the experiment: Functional cAMP activity in the presence of 1% HSA. Conditions: read-out: cAMP Rel EC50, hGIPR.

In experiment [4] the target is T1, hGLP-1R. Nature of the experiment: Functional cAMP activity in the presence of 1% HSA. Conditions: read-out: cAMP Rel EC50, hGLP-1R.
Experiment [5] addresses human GcgR (Homo sapiens, UniProt P47871). The experiment is described as follows: Functional cAMP activity in the presence of 1% HSA. Conditions: read-out: cAMP Rel EC50, hGcgR.
In experiment [6] the target is T2, hGIPR. The experiment is described as follows: Functional cAMP activation in the presence of 0.1% casein (no HSA). Conditions: read-out: Relative cAMP EC50, hGIPR.
Protocol: After a 30-minute incubation at 37° C., the resulting increase in intracellular cAMP is quantitatively determined using the CisBio CAMP Dynamic 2 HTRF Assay Kit (62AM4PEJ). Briefly, cAMP levels within the cell are detected by adding the cAMP-d2 conjugate in cell lysis buffer followed by the antibody anti-cAMP-Eu^3+-Cryptate, also in cell lysis buffer.
Intracellular cAMP levels are determined by extrapolation using a standard curve. Dose response curves of compounds are plotted as the percentage of stimulation normalized to minimum (buffer only) and maximum (maximum concentration of each control ligand) values and analyzed using a four parameter non-linear regression fit with a variable slope (Genedata Screener 13). EC50 is the concentration of compound causing half-maximal simulation in a dose response curve. Each relative EC50 value for the Geometric mean calculation is determined from a curve fitting.
Where [7] appears, read: 0.1% casein, no HSA, geometric mean.
The mark [8] stands for this setting: in the presence of 0.1% casein (no HSA), geometric mean.

Read-outs that look alike come from different tables or passages of the source. Starred links: 1 amine or outer side, 2 acyl side, 3 side chain; linkers in the order of their positions; H or OH if unused. Non-standard residues stand in square brackets, D forms with d. Residues, ends and D or L forms follow the SMILES beside them. Groups on a side chain read outwards from the residue. No end group written: not given here. *: point of attachment. C20 diacid = O=C(O)CCCCCCCCCCCCCCCCCCC(=O)*; C18 diacid = O=C(O)CCCCCCCCCCCCCCCCC(=O)*; Phe(4-CN) = N#Cc1ccc(C[C@H](N)C(=O)O)cc1; αMePhe(2-F) = C[C@](N)(Cc1ccccc1F)C(=O)O; γGlu = O=C(O)[C@H](CCC(=O)[*:2])N[*:1]; αMe4Pal = C[C@](N)(Cc1ccncc1)C(=O)O; αMeY = C[C@](N)(Cc1ccc(O)cc1)C(=O)O; 4Pal = N[C@@H](Cc1ccncc1)C(=O)O; αMeL = CC(C)C[C@](C)(N)C(=O)O; αMeS = C[C@](N)(CO)C(=O)O; Orn = NCCC[C@H](N)C(=O)O; AEEA = NCCOCCOCC(=O)O; Aib = CC(C)(N)C(=O)O
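For Relative cAMP EC50, hGIPR in this document: intracellular cAMP rise after 30 min at 37 °C read by HTRF against a standard curve, scaled between buffer alone (0%) and top control ligand concentration (100%), four-parameter fit.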
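For Relative cAMP EC50, hGLP-1R in this document: intracellular cAMP rise after 30 min at 37 °C read by HTRF, normalized between buffer only (0%) and maximal control ligand (100%), four-parameter variable-slope fit.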
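For Relative cAMP EC50, hGcgR in this document: intracellular cAMP rise after 30 min at 37 °C, read by HTRF against a cAMP standard curve, scaled from buffer only (0%) to maximal control ligand response (100%).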

Chain of human GcgR (P47871 26-477): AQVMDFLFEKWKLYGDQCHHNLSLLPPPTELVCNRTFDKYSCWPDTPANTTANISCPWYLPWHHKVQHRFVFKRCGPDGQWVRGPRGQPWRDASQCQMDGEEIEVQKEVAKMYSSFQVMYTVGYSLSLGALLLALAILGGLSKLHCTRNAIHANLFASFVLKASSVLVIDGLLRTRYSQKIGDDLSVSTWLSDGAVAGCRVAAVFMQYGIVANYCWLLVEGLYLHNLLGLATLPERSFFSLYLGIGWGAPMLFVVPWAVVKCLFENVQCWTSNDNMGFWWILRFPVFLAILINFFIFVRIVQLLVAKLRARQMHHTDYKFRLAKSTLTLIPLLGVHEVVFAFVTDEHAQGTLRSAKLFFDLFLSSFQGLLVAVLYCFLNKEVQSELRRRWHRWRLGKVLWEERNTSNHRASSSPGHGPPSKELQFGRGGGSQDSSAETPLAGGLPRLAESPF
Chain of hGcgR (P47871 26-477): as above

For the compound “H-Y[Aib]QGT[αMePhe(2-F)]TSD[4Pal][αMeS]I[αMeL]LD[Orn]K([γGlu-γGlu-C18 diacid])AQ[αMe4Pal]EFI[dE][αMeY]LIEGGPPS[Aib][Orn]PPP[Orn]GS-NH2 [Example 1226]”, the half-maximal effective concentration (EC50) was 1.65 nM in experiment [1] (setting [7]); 0.264 nM in experiment [2] (setting [7]); 0.443 nM in experiment [3]; 34.4 nM in experiment [4]; 184 nM in experiment [5]; 0.00539 nM in experiment [6] (setting [7]).

As for “H-Y[Aib]QGTFTSD[4Pal]S[Orn][αMeL]LDKK([AEEA-γGlu-C18 diacid])AQ[αMe4Pal]AFIE[αMe4Pal]LIEGGPSSGAPPPSGS-NH2 [Example 949]”, the EC50 in experiment [1] (setting [8]) was determined as 1.62 nM; in experiment [2] (setting [8]), 3.37 nM; in experiment [3], 26 nM; in experiment [4] it was 721 nM; in experiment [5], 317 nM; in experiment [6] (setting [8]), 0.203 nM.

In the case of “H-Y[Aib]QGT[αMePhe(2-F)]TSD[4Pal]SI[αMeL]LDKK([γGlu-γGlu-C18 diacid])AQ[Aib]AFIEYLEEGGPSSGAPPPSGEGE-NH2 [Example 623]”, the 50% effective concentration (EC50) in experiment [1] stood at 7.94 nM; in experiment [2] it was 0.907 nM; in experiment [3] it was 1.48 nM; in experiment [4], 62.2 nM; in experiment [5] it was 832 nM; in experiment [6], 0.0224 nM.

For “H-Y[Aib]QGT[αMePhe(2-F)]TSD[4Pal][αMeS]ILLD[Orn]K([γGlu-γGlu-C18 diacid])AQ[Aib][Orn]FI[dE]YLIEGGPSSGEPPPEGTEEE-NH2 [Example 577]”, the concentration for a half-maximal effect (EC50) in experiment [1] is 6.47 nM; in experiment [2] it was 0.931 nM; in experiment [3] it was 10 nM; in experiment [4], 81.8 nM; in experiment [5], 937 nM; in experiment [6], 0.103 nM.

For the compound “H-Y[Aib]QGT[αMePhe(2-F)]TSDYSKLLDKIAQK([AEEA-γGlu-C18 diacid])AFIEYLIEGGPSSGEPPPSEG-NH2 [Example 330]”, the EC50 was 3.91 nM in experiment [1] (setting [8]); 0.63 nM in experiment [2] (setting [8]); 7.33 nM in experiment [3]; 91.8 nM in experiment [4]; 398 nM in experiment [5]; 0.0783 nM in experiment [6] (setting [8]).

On to “Y[Aib]QGT[αMePhe(2-F)]TSD[4Pal][αMeS]I[αMeL]LE[Orn]K([AEEA-γGlu-C18 diacid])AQ[αMe4Pal]EFI[dE][αMeY]LVEGGPSSGAPPPSGS-NH2 [Example 768]”, for which the 50% effective concentration (EC50) in experiment [1] is 10.3 nM; in experiment [2], 0.259 nM; in experiment [3], 2.65 nM; in experiment [4] it was 33.2 nM; in experiment [5] it was 2270 nM; in experiment [6], 0.0294 nM.

As to “Y[Aib]QGTFTSDFSK[αMeL]LDKK([AEEA-γGlu-C20 diacid])AQ[Aib]AFIEYLLEGGPSSGEPPPTEG-NH2 [Example 36]”, the EC50 in experiment [1] (setting [8]) is 4.32 nM; in experiment [2] (setting [8]), 3.57 nM; in experiment [3], 170 nM; in experiment [4] it was 1360 nM; in experiment [5], 1330 nM; in experiment [6] (setting [8]) it was 0.482 nM.

Take “H-Y[Aib]QGT[αMePhe(2-F)]TSD[4Pal][αMeS]I[αMeL]LD[Orn]K([AEEA-γGlu-C18 diacid])AQ[αMe4Pal]EFI[dE][αMeY]LIEGGPPS[Aib]EPPPSGSE-NH2 [Example 1200]”: the concentration for a half-maximal effect (EC50) in experiment [1] (setting [7]) is 1.5 nM; in experiment [2] (setting [7]), 0.727 nM; in experiment [3] it was 0.896 nM; in experiment [4], 91.4 nM; in experiment [5] it was 278 nM; in experiment [6] (setting [7]) it was 0.00883 nM.

As for “H-Y[Aib]QGT[αMePhe(2-F)]TSD[Phe(4-CN)]SILLDKQAQK([AEEA-γGlu-γGlu-C20 diacid])AFIEYLLEGGPSSGEPPPSEG-NH2 [Example 352]”, the concentration giving a half-maximal response (EC50) in experiment [1] (setting [8]) was determined as 16.4 nM; in experiment [2] (setting [8]) it was 0.967 nM; in experiment [3] it was 34.1 nM; in experiment [4], 407 nM; in experiment [5], 4020 nM; in experiment [6] (setting [8]), 0.245 nM.

For the compound `CC[C@H](C)[C@H](NC(=O)[C@H](Cc1ccccc1)NC(=O)[C@H](C)NC(=O)C(C)(C)NC(=O)[C@H](CCC(N)=O)NC(=O)[C@H](C)NC(=O)[C@H](CCCCNC(=O)COCCOCCNC(=O)CC[C@H](NC(=O)CCCCCCCCCCCCCCCCC(=O)O)C(=O)O)NC(=O)[C@H](CCCCN)NC(=O)[C@H](CC(=O)O)NC(=O)[C@H](CC(C)C)NC(=O)[C@](C)(CC(C)C)NC(=O)[C@@H](NC(=O)[C@H](CO)NC(=O)[C@H](Cc1ccc(O)cc1)NC(=O)[C@H](CC(=O)O)NC(=O)[C@H](CO)NC(=O)[C@@H](NC(=O)[C@](C)(Cc1ccccc1F)NC(=O)[C@@H](NC(=O)CNC(=O)[C@H](CCC(N)=O)NC(=O)C(C)(C)NC(=O)[C@@H](N)Cc1ccc(O)cc1)[C@@H](C)O)[C@@H](C)O)[C@@H](C)CC)C(=O)N[C@@H](CCC(=O)O)C(=O)N[C@@H](Cc1ccc(O)cc1)C(=O)N[C@@H](CC(C)C)C(=O)N[C@@H](CCC(=O)O)C(=O)N[C@@H](CCC(=O)O)C(=O)NCC(=O)NCC(=O)N1CCC[C@H]1C(=O)N[C@@H](CO)C(=O)N[C@@H](CO)C(=O)NCC(=O)N[C@@H](C)C(=O)N1CCC[C@H]1C(=O)N[C@@H](CCC(=O)O)C(=O)N1CCC[C@H]1C(=O)N[C@@H](CO)C(N)=O` [Example 423] (H-Y[Aib]QGT[αMePhe(2-F)]TSDYSI[αMeL]LDKK([AEEA-γGlu-C18 diacid])AQ[Aib]AFIEYLEEGGPSSGAPEPS-NH2), the half-maximal effective concentration (EC50) amounted to 1.92 nM in experiment [1]; 0.194 nM in experiment [2]; 3.07 nM in experiment [3]; 28.7 nM in experiment [4]; 319 nM in experiment [5]; 0.0114 nM in experiment [6].

With “H-Y[Aib]QGTFTSDFS[Orn][αMeL]LDKK([AEEA-γGlu-C18 diacid])AQ[Aib]AFIEYLLEGGPSSGEPPPSGS-NH2 [Example 131]”, the concentration giving a half-maximal response (EC50) was 2.64 nM in experiment [1] (setting [8]); 5.51 nM in experiment [2] (setting [8]); 91.8 nM in experiment [3]; 984 nM in experiment [4]; 976 nM in experiment [5]; 0.416 nM in experiment [6] (setting [8]).

Consider “H-Y[Aib]QGTFTSD[4Pal]SQ[αMeL]LDKK([γGlu-AEEA-γGlu-C18 diacid])AQ[αMe4Pal]AFIEYLIE[Aib]GPSSGAPPPSGS-NH2 [Example 861]”, for which the EC50 in experiment [1] (setting [8]) is 8.59 nM; in experiment [2] (setting [8]) it was 2.62 nM; in experiment [3] it was 18.3 nM; in experiment [4] it was 322 nM; in experiment [5] it was 1350 nM; in experiment [6] (setting [8]) it was 0.195 nM.

On to “H-Y[Aib]QGT[αMePhe(2-F)]TSD[4Pal]SI[αMeL]LD[Orn]K([AEEA-γGlu-C18 diacid])AQ[αMe4Pal][Orn]FI[dE][αMeY]LIEGGPSSGDPPPEGTGE-NH2 [Example 732]”, for which the EC50 in experiment [1] is 2.18 nM; in experiment [2] it was 0.268 nM; in experiment [3] it was 1.26 nM; in experiment [4] it was 27.2 nM; in experiment [5], 327 nM; in experiment [6], 0.0118 nM.

In the case of “H-Y[Aib]QGTFTSD[4Pal]SQ[αMeL]LDKK([γGlu-γGlu-γGlu-C18 diacid])AQ[αMe4Pal]AFIEYLIE[Aib]GPSSGAPPPSGS-NH2 [Example 859]”, the 50% effective concentration (EC50) in experiment [1] (setting [8]) amounted to 8.45 nM; in experiment [2] (setting [8]) it was 2.38 nM; in experiment [3], 32.3 nM; in experiment [4], 543 nM; in experiment [5] it was 2250 nM; in experiment [6] (setting [8]), 0.12 nM.

Consider “H-Y[Aib]QGTFTSD[4Pal]SQ[αMeL]LD[Orn]K([AEEA-γGlu-C18 diacid])AQ[αMe4Pal]AFIE[αMeY]LIEGGPSSGAPPPSGS-NH2 [Example 849]”, for which the EC50 was found to be 6.66 nM in experiment [1] (setting [8]); 0.661 nM in experiment [2] (setting [8]); 36.6 nM in experiment [3]; 111 nM in experiment [4]; 1160 nM in experiment [5]; 0.306 nM in experiment [6] (setting [8]).
